Laboratory results from US7666414B2, “Methods for treating prostate cancer using modified antibodies to prostate-specific membrane antigen” (Cornell Research Foundation, Inc., priority 2001, dated 2010).
Where two headings read alike, the source gives them in different places.

Legend:
LNCaP cells = assay: Immunoreactivity by the method of Lindmo; design: species or system human; details: 111In labeled, binding extrapolated to infinite antigen excess
Procedure: The solutions were incubated at 4° C. for 60 minutes prior to being isolated (by centrifugation) and washed with ice cold PBS. The membranes were then counted in a gamma counter with standards representing the total radioactivity added. The data was plotted using the Lindmo method as the reciprocal of the substrate concentration α-axis) against the reciprocal of the fraction bound (y-axis). The data was then fitted according to a least squares linear regression method (Sigma Plot) and the y intercept taken as the reciprocal of the immunoreactivity. A similar method using membranes derived from LNCaP cells, and subsequent centrifugation isolation of the membranes, gave similar results. The results gave an average immunoreactivity of 72% (see Table 11).
Briefly five test solutions were prepared (in duplicate) containing 10,000 cpm of ^111Indium labeled-DOTA-deJ591 and various amounts of LNCaP cells or cell membranes, in a total test volume of 250 μL of 0.2% BSA 10 mM HEPES. The solutions were incubated at 4° C. for 60 minutes prior to being isolated (by centrifugation) and washed with ice cold PBS. The membranes were then counted in a gamma counter with standards representing the total radioactivity added. The data was plotted using the Lindmo method as the reciprocal of the substrate concentration α-axis) against the reciprocal of the fraction bound (y-axis). The data was then fitted according to a least squares linear regression method (Sigma Plot) and the y intercept used as the reciprocal of the immunoreactivity. The target for immunoreactivity was not less than 75%.

prostate tissue = assay: Immunohistochemistry of DOTA conjugated deJ591
Procedure: Immunohistochemistry was performed on the DOTA conjugated, partially purified, bulk intermediate deJ591.

[1] = target: prostate specific membrane antigen (Homo sapiens, UniProt Q04609); assay: Competitive binding sites on PSMA; details: relative to J591, J533, E99 site
Source text: To kill or ablate normal, benign hyperplastic, and cancerous prostate epithelial cells, a first antibody, e.g., a modified antibody, can be conjugated with a prodrug which is activated only when in close proximity with a prodrug activator. The prodrug activator is conjugated with a second antibody, e.g., a second modified antibody according to the present invention, preferably one that binds to a non-competing site on the prostate specific membrane antigen molecule. Whether two modified antibodies bind to competing or non-competing binding sites can be determined by conventional competitive binding assays. […] Monoclonal antibody J415, on the other hand, binds to a binding site that is non-competing with the site to which J591, J533, and E99 bind. Thus, for example, the first modified antibody can be one of J591, J533, and E99, and the second modified antibody can be J415. Alternatively, the first modified antibody can be J415, and the second modified antibody can be one of J591, J533, and E99. Drug-prodrug pairs suitable for use in the practice of the present invention are described in Blakely et al., “ZD2767, an Improved System for Antibody-directed Enzyme Prodrug Therapy That Results in Tumor Regressions in Colorectal Tumor Xenografts,” (1996) Cancer Research, 56:3287-3292, which is hereby incorporated by reference.

prostate cancer = details: in vivo
Procedure: A single patient was treated with mAb deJ591. This patient had bulky, poorly differentiated prostate cancer and had failed multiple courses of external beam radiotherapy as well as multiple forms of hormonal and non-hormonal chemotherapy. […] Four doses (#1, 3, 6 and 11) were trace-radiolabeled with either ^131Iodine or ^111Indium for pharmacokinetic determinations and biodistribution. The mean effective serum residence time of ^131I-deJ591 ranged from 31.9 to 51.3 hours, depending on the dose. Tumor localization to known tumor sites was excellent after each of the radiolabeled doses over the five month period. Dose twelve was radiolabeled with a therapeutic quantity of ^90Yttrium (19mCi) calculated to deliver less than a 150 rad dose to the blood. This dose was determined in consultation with the FDA and took into account prior radiotherapy delivered by external beam and by 131 Iodine. […] The patient's platelet count dropped to 64,000 (normal: 150,000-300,000) at five weeks post ^90Y-DOTA-deJ591 administration (as an anticipated result of radiation to the bone marrow) prior to spontaneously returning to normal levels. […] The patient experienced no side effects. The patient's PSA declined from 63 at the time of deJ591-DOTA-9Y administration to 36. […] This patient succumbed to their metastatic prostate cancer ten and one-half months after initiating treatment with ^90Y-DOTA-deJ591.

[2] = system: recurrent prostate cancer; assay: Phase II trial of deJ591 with low-dose subcutaneous IL-2; assay type: in vivo, human; details: in combination with daily low-dose subcutaneous IL-2; six patients entered
Procedure: Patients receive daily low-dose subcutaneous rIL-2 (1.2×10^6 IU/m^2/day) on day 1 through day 56. […] IL-2 administration is continued during this period another two weeks afterwards. This 8-week regimen constitutes one cycle of therapy. Patients are evaluated for response at the end of one cycle. Patients who have responded to therapy or have stable disease are eligible for additional cycles of therapy. Additional cycles will be initiated when there is at least two consecutive rises in PSA at least 2 weeks apart. […] The dose of antibody will be adjusted based on additional data analysis of patients treated in this manner.

[3] = system: vascular endothelium of solid tumors; assay: Phase I trial of 111In-DOTA-deJ591 in refractory solid tumor malignancies; assay type: in vivo; details: for Plasma clearance (T1/2): human
Source text: Eligible patients were those with refractory solid tumor malignancies whose tumor types are known to express PSMA on the neovasculature.
Patients the participated in the study included eight renal cell cancer patients, four bladder cancer patients, two colon cancer patients, and one pancreas cancer patient.

[4] = system: PSMA-positive human LNCaP tumors; assay: Biodistribution of 131I labeled MAbs in nude mice bearing LNCaP tumors; details: mouse, in vivo
Procedure: (§1) Prior to use, the cells were trypsinized, counted and suspended in Matrigel (Collaborative Biomedical Products, Bedford, Mass.). Nu/Nu Balb C mice 8-10 weeks of age were inoculated, in the right and left flanks, with a suspension of 5×10^6 LNCaP cells in Matrigel (BD Biosciences, Bedford Mass.). After a period of 14-18 days, tumors (100-300 mg) had developed. The PSMA-negative DU145 and PC3 cells were implanted in nude mice in an identical manner.
(§2) The PSMA-positive and PSMA-negative tumor bearing mice were injected, via the tail vein, with 80 KBq of the iodinated MAb (400 MBq/mg) in 200 μL of PBS (pH 7.4, 0.2% BSA). Groups of animals (3-8/group) were sacrificed after 2, 4 or 6 days. The major organs and tumors were recovered. The tissue samples were weighed and counted, with appropriate standards in an automatic NaI(Tl) counter. These measured relative activity data (cpm) were background corrected and expressed as a percentage of the injected dose per gram (% ID/g). […] J415, J591 and 7E11 were labeled with ^111In (100 MBq/mg). 80 KBq of the ^111In labeled MAbs were injected in groups of animals. The % ID/g in various organs and tumor tissues was determined at 2-6 days post injection in a similar way as described for ^131I labeled MAbs.

[5] = system: PSMA-positive CWR22 xenografts; assay: Efficacy in PSMA-positive CWR22 xenografts; assay type: in vivo, C.B-17 scid mice
Procedure: Experiment: Male SCID mice were implanted by serial passage of CWR22 prostate tumor xenograft. […] All treatments were given intravenously. Tumor growth and animal health were continually monitored throughout the study with tumor growth measured every 3 days.
Experiment: Male C.B-17 SCID mice bearing CWR22 xenografts approximately 200 mm^3 in size received IV injections (200 μL constant volume) of the test articles according to the dose and schedule as shown in Table 22.
Male C.B-17 scid mice bearing CWR22 xenografts approximately 200 mm^3 in size received IV injections (200 μL constant volume) of the test articles according to the dose and schedule shown in the Table 23.
The objective of this study was to determine how much the dosing interval could be increased at this dosage before a loss of efficacy in terms of TGD would be observed. […] The growth delays for the other schedules were: q7d, 53.0 days; q21d, 48.0 days; and q28d, 26.9 days. Similar to other studies using the CWR22 xenograft model, no curative responses were observed, with all tumors eventually resuming growth (FIG. 18).
Experiment: Male SCID mice were implanted by serial passage of CWR22 prostate tumor xenograft. […] All treatments were given intravenously and on a schedule of every three days for 5 doses. Tumor growth and animal health were continually monitored throughout the study with tumor growth measured every 3 days.
Experiment: Male SCID mice were implanted by serial passage of CWR22 prostate tumor xenograft. […] All treatments were given intravenously and on a schedule of every seven days for 5 doses. Tumor growth and animal health were continually monitored throughout the study with tumor growth measured every 3 days.

[6] = system: hormone-refractory prostate cancer metastases; assay: Nuclear imaging with 111In or 177Lu labeled deJ591 versus standard imaging; assay type: in vivo, human
Procedure: The antibody scans were compared to standard imaging studies (bone, CT or MR scans) obtained on each patient to assess the underlying sensitivity, specificity, and accuracy of deJ591 targeting to metastatic sites. Bony and soft tissue metastases were evaluated independently.

[7] = system: PSMA-positive human LNCaP tumors; design: species or system nude mice; details: mouse, in vivo
Procedure: as §1, §2
For the imaging studies, animals were injected with 2 MBq of ^111In-DOTA-J591. […]

[8] = system: recurrent, progressing prostate cancer; assay: Phase I trial of 111In-DOTA-deJ591, four weekly doses; assay type: in vivo, human
Procedure: Patients with recurrent, progressing prostate cancer received four weekly doses of ^111In-DOTA-deJ591. Doses were escalated in cohorts of three patients and ranged from 62.5-500 mg/m2 (total). […] After the first dose, patients were imaged on the day of injection (day 0) and days 1, 2, 4 and 7.
Serum PK, immune reaction and toxicity were evaluated after each dose for a minimum of 12 weeks.

[9] = system: hormone refractory prostate cancer; assay type: in vivo, human
Source text: All patients had rising PSA levels on three consecutive measurements.

[10] = four weekly doses, 62.5-500 mg/m2 total

Chain of prostate specific membrane antigen (Q04609 whole entry): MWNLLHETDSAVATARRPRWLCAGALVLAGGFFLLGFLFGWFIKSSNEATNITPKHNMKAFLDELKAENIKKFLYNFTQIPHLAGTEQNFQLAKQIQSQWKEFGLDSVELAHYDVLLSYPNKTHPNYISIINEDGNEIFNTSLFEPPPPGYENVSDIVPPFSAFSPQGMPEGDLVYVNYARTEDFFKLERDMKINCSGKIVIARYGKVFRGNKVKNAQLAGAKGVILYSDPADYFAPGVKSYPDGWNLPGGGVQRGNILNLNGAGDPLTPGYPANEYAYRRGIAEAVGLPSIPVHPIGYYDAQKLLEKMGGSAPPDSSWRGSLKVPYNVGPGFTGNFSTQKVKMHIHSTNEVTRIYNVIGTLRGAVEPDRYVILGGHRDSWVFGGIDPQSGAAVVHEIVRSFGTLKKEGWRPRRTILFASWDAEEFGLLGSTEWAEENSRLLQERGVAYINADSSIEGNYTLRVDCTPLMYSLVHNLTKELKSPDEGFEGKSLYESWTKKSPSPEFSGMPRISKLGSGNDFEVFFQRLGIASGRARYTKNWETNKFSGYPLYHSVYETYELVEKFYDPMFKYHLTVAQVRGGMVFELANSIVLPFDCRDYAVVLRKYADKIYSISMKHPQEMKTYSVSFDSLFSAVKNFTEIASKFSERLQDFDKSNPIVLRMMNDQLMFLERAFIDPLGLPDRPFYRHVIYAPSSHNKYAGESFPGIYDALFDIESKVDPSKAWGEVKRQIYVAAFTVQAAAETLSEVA

Substance DOTA conjugated deJ591 has an Immunoreactivity (LNCaP cells) of 95%, an Immunoreactivity (LNCaP cells; listed as Lot 243101) of 95% and an Immunoreactivity (LNCaP cells; listed as Lot BIOV983.2-2) of 72%. For the same substance, the “Immunohistochemistry specificity and reactivity” value (prostate tissue) was “specific to prostate tissue and the reactivity was equivalent to the naked deJ591 antibody”.

With “J591: murine monoclonal antibody to the extracellular domain of human PSMA, hybridoma ATCC HB-12126” the “binding site on the prostate specific membrane antigen molecule” value [1] was “bind to competing binding sites”.

“deJ591: deimmunized form of murine anti-PSMA antibody J591, human IgG1/kappa constant regions, NS0 cell line ATCC PTA-3709” was tested, and the “human anti-deimmunized antibody (immune) response” value (prostate cancer) was “No detectable human anti-deimmunized antibody (immune) response developed”, the Toxicities [2] was “expected and minor” and the Liver uptake ([3]; 5 mg) was 28%+/−14. The Liver uptake ([3]; 10 mg) was 17%+/−7, the Liver uptake ([3]; 20 mg) was 13%+/−5 and the “Plasma clearance (T1/2)” value ([3]; in vivo, 5 mg) was 21 ± 11 h. For the same substance, the “Plasma clearance (T1/2)” value ([3]; in vivo, 10 mg) was 24 ± 6 h, the “Plasma clearance (T1/2)” value ([3]; in vivo, 20 mg) was 37 ± 8 h and the blood activity [4] was “significantly lower compared to that of 7E11”. For the same substance, the tumor uptake [4] was 8.55±1.29 % injected dose/gram, the “Tumor Growth Delay” value ([5]; Comparison II, 12.96 mg/kg, q3dX5) was 1.9 days and the “effect on CWR22 xenograft tumor growth” value ([5]; every three days for 5 doses, IV, equimolar to 14.5 mg/kg deJ591-DM1) was “no significant effect”. The “patients with soft tissue masses accurately targeted” value ([6]; eight out of nine) was 89%, the “patients without documented soft tissue metastases with negative mAb scans” value ([6]; fifteen patients) was 100% and the “specificity, negative bone scans negative on the deJ591 scan” value ([6]; seven patients) was 100%. The “concordance between standard imaging and mAb scans” value ([6]; soft tissue and bony metastases) was 91%, the “patients with bone metastases on bone scan accurately targeted” value ([6]; twelve of fifteen) was 80% and the blood activity [7] was 2.52±0.16 % ID/g.

With ^111In-DOTA-deJ591 the tumor targeting ([3]; 7 renal cell, 2 bladder, 1 colon cancer) was “ten of the fifteen patients”, the “decline in CEA” value ([3]; a colon cancer patient) was 50% and the false negative imaging ([3]; in vivo) was “five of the fifteen patients”. For the same substance, the objective responses ([3]; in vivo) was “No objective responses occurred”, the “immune reaction to the antibody” value [8, 10] was “None of the patients developed an immune reaction to the antibody” and the “toxicity or side effects” value [8, 10] was “Neither this latter patient nor the remaining thirteen patients experienced any toxicity or side effects”. For the same substance, the “mAb targeting to bony sites” value ([8]; ten patients with positive bone scans) was “all ten demonstrated excellent mAb targeting to bony sites”, the “mAb targeting to soft tissue disease” value ([8]; three patients with soft tissue disease on CT) was “two demonstrated mAb targeting to these sites” and the Immunoreactivity (LNCaP cells) was 72%. The “false negative imaging in patients who had imagable disease” value ([9]; four of twenty-two) was 18%, the “Plasma clearance (T1/2)” value ([9]; human, in vivo, 20 mg) was 34 ± 5 h and the “tumor targeting in patients who had imagable disease” value ([9]; sixteen of twenty-two, 20 mg, 185 MBq) was 72.7%.
